{
  "source": "patent US20260263424A1",
  "about": "“Formulations of 2-Arylbenzimidazole Compounds” (Tranquis Therapeutics, Inc., priority 2022, published 2026)",
  "key": {"[1]": {"details": "cited from earlier work"}, "[2]": {"system": "Ppargc1α (PGC-1α) expression", "details": "Zhang et al., Diabetes 62:1297-1307 (2013); cited from earlier work"}, "[3]": {"system": "murine models of neurodegenerative diseases, including Parkinson's disease, Alzheimer's disease, and amyotrophic lateral sclerosis (ALS)", "details": "administered orally at 25 mg/kg; cited from earlier work"}, "[4]": {"details": "WO 2021/262617; cited from earlier work"}, "[5]": {"assay": "Multiple dose phase 1 trial, plasma pharmacokinetics of compound 1 SDD formulation QD for 7 days", "details": "for AR AUC (accumulation ratio based on AUC(0-tau)) / AR Cmax (accumulation ratio): Day 7, plasma"}, "[6]": {"assay": "Single ascending dose (SAD) phase 1 trial, plasma pharmacokinetics of MC, SDD and HME formulations", "details": "for Frel Cmax/D (relative bioavailability, geometric mean): dose normalized comparison to Regimen C: 540 mg compound 1 MC formulation; for AUC(0-last) (geometric mean): fasted, plasma"}, "[7]": {"details": "human, in vivo"}, "[8]": {"details": "male, human, in vivo, 120 mg, 7 days"}, "[9]": {"details": "Regimen I: 120 mg compound 1 SDD formulation QD, fasted"}, "[10]": {"details": "Regimen J: 90 mg compound 1 SDD formulation QD, fed"}, "[11]": {"details": "Regimen K: 300 mg compound 1 SDD formulation QD, fed"}},
  "note": "Where two headings read alike, the source gives them in different places.",
  "data": [
    {"compound": "CC(C)(C)c1ccc(-c2nc3ccccc3[nH]2)cc1", "note": "[Compound 1, 2-(4-tert-butylphenyl)-1H-benzimidazole]", "values": [
      {"measurement": "solubility under aqueous conditions", "setting": "[1]", "result": "highly insoluble"},
      {"measurement": "effect on Ppargc1α (PGC-1α) expression", "setting": "[2]", "result": "activator"},
      {"measurement": "disease severity", "setting": "[3]", "result": "reduce disease severity"},
      {"measurement": "myeloid-mediated inflammation", "setting": "[3]", "result": "suppress myeloid-mediated inflammation"},
      {"measurement": "treating systemic immune activation", "setting": "[4]", "result": "effective"},
      {"measurement": "AR AUC (accumulation ratio based on AUC(0-tau))", "setting": "[5]; [9]", "result": 1.58},
      {"measurement": "AR Cmax (accumulation ratio)", "setting": "[5]; [9]", "result": 1.59},
      {"measurement": "AR AUC (accumulation ratio based on AUC(0-tau))", "setting": "[5]; [10]", "result": 1.24},
      {"measurement": "AR Cmax (accumulation ratio)", "setting": "[5]; [10]", "result": 1.03},
      {"measurement": "maximum individual AUC(0-tau) as share of the AUC(0-tau) exposure limit", "setting": "[5]; Regimen J: 90 mg compound 1 SDD formulation, fed, Day 1", "result": 10.9, "unit": "%"},
      {"measurement": "AR AUC (accumulation ratio based on AUC(0-tau))", "setting": "[5]; [11]", "result": 1.66},
      {"measurement": "AR Cmax (accumulation ratio)", "setting": "[5]; [11]", "result": 1.74},
      {"measurement": "dose proportionality of Cmax, AUC(0-24) and AUC(0-inf)", "setting": "[6]; MC formulation, single doses of 60 and 180 mg compound 1", "result": "slightly sub-proportionally"},
      {"measurement": "Frel Cmax/D (relative bioavailability, geometric mean)", "setting": "[6]; Regimen D 180 mg compound 1 SDD formulation", "result": 218, "unit": "%"},
      {"measurement": "AUC(0-last) (geometric mean)", "setting": "[6]; Regimen D: single oral 180 mg compound 1 SDD formulation", "result": 611, "unit": "ng·h/mL"},
      {"measurement": "Frel Cmax (relative bioavailability, geometric mean)", "setting": "[6]; Regimen E 180 mg compound 1 HME formulation, comparison to Regimen D 180 mg compound 1 SDD formulation", "result": 56.6, "unit": "%"},
      {"measurement": "Frel Cmax/D (relative bioavailability, geometric mean)", "setting": "[6]; Regimen E 180 mg compound 1 HME formulation", "result": 124, "unit": "%"},
      {"measurement": "AUC(0-last) (geometric mean)", "setting": "[6]; Regimen E: single oral 180 mg compound 1 HME formulation", "result": 360, "unit": "ng·h/mL"}
    ]},
    {"compound": "CC(C)(C)c1ccc(-c2nc3cc(O)ccc3[nH]2)cc1", "note": "[Compound 2, 2-(4-(tert-butyl)phenyl)-1H-benzo[d]imidazol-5-ol]", "values": [
      {"measurement": "dose proportionality of Cmax, AUC(0-24) and AUC(0-inf)", "setting": "[7]; 180 mg", "result": "proportionally"},
      {"measurement": "Frel Cmax (relative bioavailability, geometric mean)", "setting": "[7]; male, 180 mg", "result": 64.9, "unit": "%"},
      {"measurement": "T1/2 (geometric mean)", "setting": "[7]; male, po, 180 mg", "result": 9.17, "unit": "h"},
      {"measurement": "Tmax (median)", "setting": "[7]; male, po, 180 mg", "result": 2, "unit": "h"},
      {"measurement": "Cmax (geometric mean)", "setting": "[7]; male, po, 270 mg", "result": 621, "unit": "ng/mL"},
      {"measurement": "Tmax (median)", "setting": "[7]; male, po, 270 mg", "result": 2, "unit": "h"},
      {"measurement": "AR AUC (accumulation ratio based on AUC(0-tau))", "setting": "[8]", "result": 1.46}
    ]}
  ]
}
